# What was measured:
# PKC = assay: Sustained PKC activation in primary neurons; format: cell-based, rat; details: sustained activation only observed in primary neurons
# Experimental: Cell Culture. Rat hippocampal H19-7/IGF-IR cells (ATCC, Manassas, Va.) were plated onto poly-L-lysine coated plates and grown at 35° C. in DMEM/10% FCS for several days until about 50% coverage was obtained. The cells were then induced to differentiate into a neuronal phenotype by replacing the medium with 5 ml N2 medium containing 10 ng/ml basic fibroblast growth factor at 39° C. and grown in T-75 flasks at 37° C. Human SH-SY5Y neuroblastoma cells (ATCC) were cultured in 45% F 12K/45% MEM/10% FCS. Mouse N2A neuroblastoma cells were cultured in DMEM/10% FCS without glutamine. Rat hippocampal neurons from 18-day-old embryonic
# Sprague Dawley rat brains were plated on 12- or 96-well plates coated with poly-D-lysine (Sigma-Aldrich, St. Louis, Mo.) in B-27 neurobasal medium containing 0.5 mM glutamine and 25 μM glutamate (Invitrogen, Carlsbad, Calif.) and cultured for three days in the medium without glutamate. […]
# Protein Kinase C Assay. […] 0.5 μCi [γ-32P]ATP was added and 32P-phosphoprotein formation was measured by adsorption onto phosphocellulose as described previously. […] For measurements of activation by BR-101 (DCP-LA) and similar compounds, PKC activity was measured in the absence of diacylglycerol and phosphatidylserine, as described by Kanno et al., and PKC δ, ε, η, and were measured in the absence of added EGTA and CaCl2, as described by Kanno et al., J. Lipid Res. 2006; 47: 1146-50. […]
# PKCδ = molecular target: T1, PKCδ (Homo sapiens, UniProt Q05655); assay: PKC isozyme specificity: PKCδ; format: biochemical; details: about 1-100 μM; data not shown
# T1 construct: purchased Calbiochem
# T1 sequence (Q05655 whole entry): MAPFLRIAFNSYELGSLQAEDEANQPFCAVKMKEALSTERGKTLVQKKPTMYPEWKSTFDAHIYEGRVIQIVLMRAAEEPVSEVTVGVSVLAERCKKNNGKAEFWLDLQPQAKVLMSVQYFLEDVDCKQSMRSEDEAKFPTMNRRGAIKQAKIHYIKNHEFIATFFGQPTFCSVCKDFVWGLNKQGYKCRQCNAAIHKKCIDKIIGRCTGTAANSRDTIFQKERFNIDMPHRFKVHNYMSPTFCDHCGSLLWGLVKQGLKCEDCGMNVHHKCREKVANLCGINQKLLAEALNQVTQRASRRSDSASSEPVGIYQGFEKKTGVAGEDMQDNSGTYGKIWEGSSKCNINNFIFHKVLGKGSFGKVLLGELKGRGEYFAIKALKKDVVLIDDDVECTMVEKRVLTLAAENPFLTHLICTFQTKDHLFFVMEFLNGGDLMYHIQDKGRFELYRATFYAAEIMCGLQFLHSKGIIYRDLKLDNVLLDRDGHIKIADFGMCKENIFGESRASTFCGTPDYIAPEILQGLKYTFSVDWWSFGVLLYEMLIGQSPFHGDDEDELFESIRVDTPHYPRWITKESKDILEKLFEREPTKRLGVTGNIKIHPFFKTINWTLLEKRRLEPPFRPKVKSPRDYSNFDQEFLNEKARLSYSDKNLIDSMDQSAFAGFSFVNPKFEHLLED
# Experimental: (§1) Protein Kinase C Assay. Rat hippocampal cells were cultured and scraped in 0.2 ml homogenization buffer (20 mM Tris-HCl, pH 7.4, 50 mM NaF, 1 μg/ml leupeptin, and 0.1 mM PMSF) and homogenized by sonication in a Marsonix micro-probe sonicator (5 sec, 10 W). To measure PKC, 10 μl of cell homogenate or purified PKC isozyme (purchased from Calbiochem) was incubated for 15 min at 37° C. in the presence of 10 μM histones, 4.89 mM CaCl2, 1.2 μg/μl phosphatidyl-L-serine, 0.18 μg/μl 1,2-dioctanoyl-sn-glycerol, 10 mM MgCl2, 20 mM HEPES (pH 7.4), 0.8 mM EDTA, 4 mM EGTA, 4% glycerol, 8 μg/ml aprotinin, 8 μg/ml leupeptin, and 2 mM benzamidine. 0.5 μCi [γ-32P]ATP was added and 32P-phosphoprotein formation was measured by adsorption onto phosphocellulose as described previously. Nelson and Alkon, J. Neurochemistry. 1995; 65: 2350-57. For measurements of activation by BR-101 (DCP-LA) and similar compounds, PKC activity was measured in the absence of diacylglycerol and phosphatidylserine, as described by Kanno et al., and PKC δ, ε, η, and were measured in the absence of added EGTA and CaCl2, as described by Kanno et al., J. Lipid Res. 2006; 47: 1146-50. […]
# (§2) To determine their PKC isozyme specificity, the new compounds were preincubated with purified PKC for five minutes and the PKC activity was measured radiometrically.
# other PKC isoforms = assay: PKC isozyme specificity: other PKC isoforms; format: biochemical; details: 10 μM; data not shown
# Experimental: as §1, §2
# TACE = TACE assay in cell homogenates of neuronal cells; format: cell-based; details: human SH-SY5Y, N2a mouse neuroblastoma cells, primary neurons from rat hippocampus
# Experimental: TACE Assay. TACE was measured by incubating 5 μl cell homogenate, 3 μl buffer (50 mM Tris-HCl 7.4 plus 25 mM NaCl plus 4% glycerol), and 1 μl of 100 μM TACE substrate IV (Aβz-LAQAVRSSSR-DPa) (Calbiochem) for 20 min at 37° in 1.5-ml polypropylene centrifuge tubes (Jin et al., Anal. Biochem. 2002; 302: 269-75). The reaction was stopped by cooling to 4° C. The samples were diluted to 1 ml and the fluorescence was rapidly measured (ex=320 nm, em=420 nm) in a Spex Fluorolog 2 spectrofluorometer.
# Buxbaum et al., J. Biol. Chem. 1998; 273: 27765-67; Etcheberrigaray et al., Proc. Natl. Acad. Sci. USA. 2006: 103:8215-20. However, many of these earlier studies were carried out in fibroblasts and other non-neuronal cell types, which appear to respond differently to PKC activators than neurons.
# PKCγ = molecular target: T2, PKCγ (Homo sapiens, UniProt P05129); assay: PKC isozyme specificity: PKCγ; format: biochemical; details: 50-100 μM; data not shown
# T2 construct: purchased Calbiochem
# Experimental: as §1, §2
structure (smiles),measurement,setting,value
"CCCCCC1CC1CC1CC1CCCCCCCC(=O)O (centres unmarked) [BR-101, 8-[2-(2-pentyl-cyclopropylmethyl)-cyclopropyl]-octanoic acid]",duration of PKC elevation,PKC,remained elevated for at least four hours
same,effect on PKCδ at higher concentrations,PKCδ,partially inhibited
same,effects on the other PKC isoforms,other PKC isoforms,relatively small effects
same,change in TACE activity,TACE,only produced small increases
same,effect on PKCγ at higher concentrations,PKCγ,activated

# Source: patent publication US20230235378A1, “LZHEIMER'S DISEASE-SPECIFIC ALTERATIONS OF PROTEIN KINASE C EPSILON (PKC-EPSILON PROTEIN LEVELS” (WEST VIRGINIA UNIVERSITY BOARD OF GOVERNORS ON BEHALF OF …, priority 2010, published 2023)
